Results taken from patent US20240082223A1, “DIHYDROFUROPYRIDINE DERIVATIVES AS RHO- KINASE INHIBITORS” (CHIESI FARMACEUTICI S.P.A., priority 2020, published 2024).

Assays:
Assay type in all cases: biochemical
ROCK1 [1] = target: T1, ROCK1 (Homo sapiens, UniProt Q13464); experiment: In vitro inhibitory activity assay ROCK1 (Method B, ADP-Glo, 200 μM ATP); settings: ATP 200 μM, read-out: Method B ROCK 1 (Ki)
Procedure: (§1) In Vitro Inhibitory Activity Assay Description ROCK1 and ROCK2
(§2) The effectiveness of compounds of the present invention to inhibit Rho kinase activity can be determined in a 10 μl assay containing 40 mM Tris pH7.5, 20 mM MgCl2 0.1 mg/mL BSA, 50 μM DTT and 2.5 μM peptide substrate (Myelin Basic Protein) using an ADP-Glo kit (Promega). Compounds were dissolved in DMSO such that the final concentration of DMSO was 1% in the assay. All reactions/incubations are performed at 25° C. Compound (2 μL) and either Rho kinase 1 or 2 (4 μl) were mixed and incubated for 30 min. Reactions were initiated by addition of ATP (4 μL) such that the final concentration of ATP in the assay was 200 μM. After a 1 hour incubation 10111 of ADP-Glo Reagent was added and after a further 45 minute incubation 20 μL of Kinase Detection Buffer was added and the mixture incubated for a further 30 minutes. The luminescent signal was measured on a luminometer. […] Compounds were tested in dose-response format and the inhibition of kinase activity was calculated at each concentration of compound. To determine the IC50 (concentration of compound required to inhibit 50% of the enzyme activity) data were fit to a plot of % inhibition vs Log10 compound concentration using a sigmoidal fit with a variable slope and fixing the maximum to 100% and the minimum to 0%. To determine the Ki values the Cheng-Prusoff equation was utilized (Ki=IC50/(1[S]/Km).

ROCK2 [2] = target: T2, ROCK2 (Homo sapiens, UniProt O75116); experiment: In vitro inhibitory activity assay ROCK2 (Method B, ADP-Glo, 200 μM ATP); settings: ATP 200 μM, read-out: Method B ROCK 2 (Ki)
T2 sequence (O75116 whole entry): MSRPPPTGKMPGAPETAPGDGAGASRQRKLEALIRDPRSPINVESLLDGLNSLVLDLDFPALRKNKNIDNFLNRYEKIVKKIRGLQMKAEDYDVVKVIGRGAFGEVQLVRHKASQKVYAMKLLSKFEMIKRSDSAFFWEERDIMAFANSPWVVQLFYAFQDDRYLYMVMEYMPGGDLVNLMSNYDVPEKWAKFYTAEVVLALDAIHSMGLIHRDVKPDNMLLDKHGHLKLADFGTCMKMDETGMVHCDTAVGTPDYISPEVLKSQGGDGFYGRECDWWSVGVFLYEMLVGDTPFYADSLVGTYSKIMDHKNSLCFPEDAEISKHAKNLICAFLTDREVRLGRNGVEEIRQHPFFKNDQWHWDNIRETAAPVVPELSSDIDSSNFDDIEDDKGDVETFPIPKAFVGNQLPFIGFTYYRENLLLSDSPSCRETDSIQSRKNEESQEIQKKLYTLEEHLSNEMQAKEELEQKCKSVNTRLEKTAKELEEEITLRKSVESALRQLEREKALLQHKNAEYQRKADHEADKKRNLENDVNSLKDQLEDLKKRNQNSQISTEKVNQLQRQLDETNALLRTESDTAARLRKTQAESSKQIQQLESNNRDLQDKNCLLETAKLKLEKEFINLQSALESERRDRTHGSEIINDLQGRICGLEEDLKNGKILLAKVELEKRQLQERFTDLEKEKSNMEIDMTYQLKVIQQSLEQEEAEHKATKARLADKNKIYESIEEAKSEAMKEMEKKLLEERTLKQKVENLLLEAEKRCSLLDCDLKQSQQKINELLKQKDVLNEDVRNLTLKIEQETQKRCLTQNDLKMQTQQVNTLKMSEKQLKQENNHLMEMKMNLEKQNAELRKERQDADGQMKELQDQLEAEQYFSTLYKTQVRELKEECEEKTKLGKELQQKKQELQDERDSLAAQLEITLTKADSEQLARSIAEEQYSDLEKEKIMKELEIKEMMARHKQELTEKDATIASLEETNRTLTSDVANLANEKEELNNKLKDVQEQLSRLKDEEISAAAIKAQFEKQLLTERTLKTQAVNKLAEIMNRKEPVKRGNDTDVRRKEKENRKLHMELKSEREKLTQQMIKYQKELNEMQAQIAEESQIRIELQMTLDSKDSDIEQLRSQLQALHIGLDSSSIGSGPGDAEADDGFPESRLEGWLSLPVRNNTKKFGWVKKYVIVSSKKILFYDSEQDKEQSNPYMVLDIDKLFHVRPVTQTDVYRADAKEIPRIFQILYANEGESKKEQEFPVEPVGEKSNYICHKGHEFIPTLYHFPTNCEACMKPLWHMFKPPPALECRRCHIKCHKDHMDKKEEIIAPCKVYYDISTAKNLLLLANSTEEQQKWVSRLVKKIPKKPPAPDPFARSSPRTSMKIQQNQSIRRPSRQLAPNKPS
Procedure: as §1, §2

PKA = PKA (Homo sapiens, UniProt P17612); experiment: In vitro inhibitory activity assay for PKA (ADP-Glo), reported as selectivity ratio vs ROCK2; settings: Ki PKA divided by Ki ROCK2 (method B)
Procedure: In vitro inhibitory activity assay description for PKA
The effectiveness of compounds of the present invention to inhibit PKA activity can be determined in a […], assay containing 40 mM Tris pH7.5, 20 mM MgCl2 0.1 mg/mL BSA, 50 μM DTT and 260 μM peptide substrate (kemptide) using an ADP-Glo kit (Promega). Compounds were dissolved in DMSO such that the final concentration of DMSO was 1% in the assay. All reactions/incubations are performed at 25° C. Compound and PKA enzyme (6 μl) were mixed and incubated for 30 min. Reactions were initiated by addition of ATP (4 μL) such that the final concentration of ATP in the assay was 10 μM. After a 30 minute incubation 10 μL of ADP-Glo Reagent was added and after a further 1 hour incubation 20 μL of Kinase Detection Buffer was added and the mixture incubated for a further 45 minutes. The luminescent signal was measured on a luminometer. […] Compounds were tested in dose-response format and the inhibition of kinase activity was calculated at each concentration of compound. To determine the IC50 (concentration of compound required to inhibit 50% of the enzyme activity) data were fit to a plot of % inhibition vs Log10 compound concentration using a sigmoidal fit with a variable slope and fixing the maximum to 100% and the minimum to 0%. To determine the Ki values the Cheng-Prusoff equation was utilized (Ki=IC50/(1+[S]/Km).
In vitro inhibitory activities for PKA were reported as selectivity ratio vs. ROCK2. Selectivity ratio PKA/ROCK2 was calculated by dividing the Ki value for PKA by Ki value of ROCK2 (method B) and reported into table 1.

ROCK1 [3] = target: T1, ROCK1; experiment: In vitro inhibitory activity assay ROCK1 (Method A, ADP-Glo, 10 μM ATP); settings: ATP 10 μM, read-out: Method A ROCK 1 (Ki)
Procedure: (§3) In vitro inhibitory activity assay description ROCK1 and ROCK2
as §2, with “(2 uL)” for “(2 μL)”, “was 10” for “was 200”, “incubation […]” for “incubation 10111”, “45 minutes” for “45 minute”, “20 uL” for “20 μL”, “utilized (Ki=IC50/(1+[S]/Km).” for “utilized (Ki=IC50/(1[S]/Km).”

ROCK2 [4] = target: T2, ROCK2; experiment: In vitro inhibitory activity assay ROCK2 (Method A, ADP-Glo, 10 μM ATP); settings: ATP 10 μM, read-out: Method A ROCK 2 (Ki)
Procedure: as §3
as §2, with “(2 uL)” for “(2 μL)”, “was 10” for “was 200”, “incubation […]” for “incubation 10111”, “45 minutes” for “45 minute”, “20 uL” for “20 μL”, “utilized (Ki=IC50/(1+[S]/Km).” for “utilized (Ki=IC50/(1[S]/Km).”

T1 sequence (Q13464 whole entry): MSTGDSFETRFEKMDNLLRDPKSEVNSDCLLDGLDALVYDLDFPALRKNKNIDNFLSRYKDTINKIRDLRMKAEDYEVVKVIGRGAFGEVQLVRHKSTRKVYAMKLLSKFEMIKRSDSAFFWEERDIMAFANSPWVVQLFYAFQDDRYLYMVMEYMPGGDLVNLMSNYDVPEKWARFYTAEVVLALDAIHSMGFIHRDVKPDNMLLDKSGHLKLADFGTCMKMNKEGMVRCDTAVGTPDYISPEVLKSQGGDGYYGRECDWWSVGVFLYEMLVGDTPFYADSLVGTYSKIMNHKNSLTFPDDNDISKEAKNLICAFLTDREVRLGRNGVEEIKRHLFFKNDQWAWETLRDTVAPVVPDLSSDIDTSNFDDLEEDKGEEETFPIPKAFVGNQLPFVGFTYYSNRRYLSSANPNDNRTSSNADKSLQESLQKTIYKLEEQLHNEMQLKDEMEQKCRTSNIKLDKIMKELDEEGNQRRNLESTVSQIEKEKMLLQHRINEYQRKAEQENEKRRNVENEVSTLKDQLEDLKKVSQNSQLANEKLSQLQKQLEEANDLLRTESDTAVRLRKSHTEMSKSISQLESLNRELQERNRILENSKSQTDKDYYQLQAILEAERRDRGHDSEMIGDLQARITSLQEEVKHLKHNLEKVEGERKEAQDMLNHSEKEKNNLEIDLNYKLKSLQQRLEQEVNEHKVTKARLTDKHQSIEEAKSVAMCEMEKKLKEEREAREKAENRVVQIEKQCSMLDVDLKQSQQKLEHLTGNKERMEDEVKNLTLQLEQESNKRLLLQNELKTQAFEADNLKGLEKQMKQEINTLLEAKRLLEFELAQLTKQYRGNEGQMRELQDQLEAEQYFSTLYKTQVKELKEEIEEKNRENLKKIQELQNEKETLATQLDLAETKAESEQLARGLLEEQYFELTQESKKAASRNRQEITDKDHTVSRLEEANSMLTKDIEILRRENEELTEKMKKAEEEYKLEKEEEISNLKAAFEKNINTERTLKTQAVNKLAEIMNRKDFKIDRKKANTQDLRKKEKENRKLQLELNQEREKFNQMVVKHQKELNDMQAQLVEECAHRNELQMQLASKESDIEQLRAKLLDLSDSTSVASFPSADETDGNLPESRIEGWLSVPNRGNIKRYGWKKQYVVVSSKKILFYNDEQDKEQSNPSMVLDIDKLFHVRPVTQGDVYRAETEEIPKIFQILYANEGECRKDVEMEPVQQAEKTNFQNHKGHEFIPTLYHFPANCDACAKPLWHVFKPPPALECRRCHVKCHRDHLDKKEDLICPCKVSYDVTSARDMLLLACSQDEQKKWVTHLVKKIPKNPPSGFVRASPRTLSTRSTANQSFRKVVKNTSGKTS

| Ki (ROCK1 [1]) [nM] | Ki (ROCK2 [2]) [nM] | Ratio Ki PKA/ROCK2 (PKA) | Ki (ROCK1 [3]) [nM] | Ki (ROCK2 [4]) [nM] | SMILES |
| --- | --- | --- | --- | --- | --- |
| 3 to 30 | 3 to 30 | *** (ratio≥10) |  |  | O=C(NCC1CC1)c1cccc(CNc2ncc(-c3cn[nH]c3)c3c2CCO3)c1 [Example 5, 3-(((7-(1H-pyrazol-4-yl)-2,3-dihydrofuro[3,2-c]pyridin-4-yl)amino)methyl)-N-(cyclopropylmethyl)benzamide] |
| 3 to 30 | ≤ 3 | *** (ratio≥10) |  |  | Cn1cnc(CNC(=O)c2cccc(CNc3ncc(-c4cn[nH]c4)c4c3CCO4)c2)c1 [Example 8, 3-(((7-(1H-pyrazol-4-yl)-2,3-dihydrofuro[3,2-c]pyridin-4-yl)amino)methyl)-N-((1-methyl-1H-imidazol-4-yl)methyl)benzamide] |
| 3 to 30 | 3 to 30 | *** (ratio≥10) |  |  | O=C(NC1CC(F)(F)C1)c1cccc(CNc2ncc(-c3cn[nH]c3)c3c2CCO3)c1 [Example 12, 3-(((7-(1H-pyrazol-4-yl)-2,3-dihydrofuro[3,2-c]pyridin-4-yl)amino)methyl)-N-(3,3-difluorocyclobutyl)benzamide] |
| ≤ 3 | ≤ 3 | *** (ratio≥10) | ≤ 3 | ≤ 3 | CN1CCC(CCNC(=O)c2cccc(CNc3ncc(-c4cn[nH]c4)c4c3CCO4)c2)CC1 [Example 16, 3-(((7-(1H-pyrazol-4-yl)-2,3-dihydrofuro[3,2-c]pyridin-4-yl)amino)methyl)-N-(2-(1-methylpiperidin-4-yl)ethyl)benzamide] |
| > 30 | > 30 | * (ratio≤5) |  |  | c1ccc(CNc2ncc(-c3cn[nH]c3)c3c2CCO3)cc1 [Example C, N-Benzyl-7-(1H-pyrazol-4-yl)-2,3-dihydrofuro[3,2-c]pyridin-4-amine, reference compound] |

Continued, compound first:

| SMILES | Ki (ROCK1 [1]) [nM] | Ki (ROCK2 [2]) [nM] | Ratio Ki PKA/ROCK2 (PKA) | Ki (ROCK1 [3]) [nM] | Ki (ROCK2 [4]) [nM] |
| --- | --- | --- | --- | --- | --- |
| O=C(NCCCF)c1cccc(CNc2ncc(-c3cn[nH]c3)c3c2CCO3)c1 [Example 3, 3-(((7-(1H-pyrazol-4-yl)-2,3-dihydrofuro[3,2-c]pyridin-4-yl)amino)methyl)-N-(3-fluoropropyl)benzamide] | 3 to 30 | 3 to 30 | *** (ratio≥10) |  |  |
| CC1(C)CC(NC(=O)c2cccc(CNc3ncc(-c4cn[nH]c4)c4c3CCO4)c2)CO1 (stereo not shown) [Example 6, 3-(((7-(1H-pyrazol-4-yl)-2,3-dihydrofuro[3,2-c]pyridin-4-yl)amino)methyl)-N-(5,5-dimethyltetrahydrofuran-3-yl)benzamide] | 3 to 30 | 3 to 30 | *** (ratio≥10) |  |  |
| O=C(NCc1cnon1)c1cccc(CNc2ncc(-c3cn[nH]c3)c3c2CCO3)c1 [Example 10, N-((1,2,5-oxadiazol-3-yl)methyl)-3-(((7-(1H-pyrazol-4-yl)-2,3-dihydrofuro[3,2-c]pyridin-4-yl)amino)methyl)benzamide] | ≤ 3 | ≤ 3 | *** (ratio≥10) |  |  |
| CN1CCn2nc(NC(=O)c3cccc(CNc4ncc(-c5cn[nH]c5)c5c4CCO5)c3)cc2C1 [Example 15, 3-(((7-(1H-pyrazol-4-yl)-2,3-dihydrofuro[3,2-c]pyridin-4-yl)amino)methyl)-N-(5-methyl-4,5,6,7-tetrahydropyrazolo[1,5-a]pyrazin-2-yl)benzamide] | ≤ 3 | ≤ 3 | *** (ratio≥10) | ≤ 3 | ≤ 3 |
| O=C(NCCC1CCN(C2COC2)CC1)c1cccc(CNc2ncc(-c3cn[nH]c3)c3c2CCO3)c1 [Example 28, 3-(((7-(1H-pyrazol-4-yl)-2,3-dihydrofuro[3,2-c]pyridin-4-yl)amino)methyl)-N-(2-(1-(oxetan-3-yl)piperidin-4-yl)ethyl)benzamide] | ≤ 3 | ≤ 3 | *** (ratio≥10) | ≤ 3 | ≤ 3 |
| COc1ccc(NC(=O)c2cccc(CNc3ncc(-c4cn[nH]c4)c4c3CCO4)c2)nc1 [Example 31, 3-(((7-(1H-Pyrazol-4-yl)-2,3-dihydrofuro[3,2-c]pyridin-4-yl)amino)methyl)-N-(5-methoxypyridin-2-yl)benzamide] | ≤ 3 | ≤ 3 | *** (ratio≥10) |  |  |
| O=C(Nc1ccncn1)c1cccc(CNc2ncc(-c3cn[nH]c3)c3c2CCO3)c1 [Example 32, 3-(((7-(1H-pyrazol-4-yl)-2,3-dihydrofuro[3,2-c]pyridin-4-yl)amino)methyl)-N-(pyrimidin-4-yl)benzamide] | ≤ 3 | ≤ 3 | *** (ratio≥10) |  |  |
| CN(C)C1CCc2nc(NC(=O)c3cccc(CNc4ncc(-c5cn[nH]c5)c5c4CCO5)c3)sc2C1 (stereo not shown) [Example 33, 3-(((7-(1H-Pyrazol-4-yl)-2,3-dihydrofuro[3,2-c]pyridin-4-yl)amino)methyl)-N-(6-(dimethylamino)-4,5,6,7-tetrahydrobenzo[d]thiazol-2-yl)benzamide] | ≤ 3 | ≤ 3 | *** (ratio≥10) | ≤ 3 | ≤ 3 |
| O=C(Nc1nc2c(s1)CC(NC1COC1)CC2)c1cccc(CNc2ncc(-c3cn[nH]c3)c3c2CCO3)c1 (stereo not shown) [Example 34, 3-(((7-(1H-pyrazol-4-yl)-2,3-dihydrofuro[3,2-c]pyridin-4-yl)amino)methyl)-N-(6-(oxetan-3-ylamino)-4,5,6,7-tetrahydrobenzo[d]thiazol-2-yl)benzamide] | ≤ 3 | ≤ 3 | *** (ratio≥10) | ≤ 3 | ≤ 3 |
| CN(C)CCOc1ccc(NC(=O)c2cccc(CNc3ncc(-c4cn[nH]c4)c4c3CCO4)c2)nc1 [Example 57, 3-(((7-(1H-pyrazol-4-yl)-2,3-dihydrofuro[3,2-c]pyridin-4-yl)amino)methyl)-N-(5-(2-(dimethylamino)ethoxy)pyridin-2-yl)benzamide] | ≤ 3 | ≤ 3 | *** (ratio≥10) |  |  |
